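Where inhibition never reached the appropriate level, the endpoint shown equals the highest concentration tested. Otherwise, values were interpolated linearly from a five-concentration, 48-hour dose response in 96-well plates. At the GI50, growth is halved. TGI marks complete inhibition of growth.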
Experiments:
Test in all cases: growth of human tumour cells (NCI), 48 h
DU-145 prostate = test system: DU-145 prostate
NCI-H23 lung = test system: NCI-H23 lung
OVCAR-8 ovarian = test system: OVCAR-8 ovarian
MDA-MB-231 breast = test system: MDA-MB-231 breast
HS 578T breast = test system: HS 578T breast
SF-539 CNS = test system: SF-539 CNS
IGROV1 ovarian = test system: IGROV1 ovarian
TK-10 renal = test system: TK-10 renal
SN12C renal = test system: SN12C renal
SW-620 colon = test system: SW-620 colon
CCRF-CEM leukemia = test system: CCRF-CEM leukemia
HOP-92 NSCLC = test system: HOP-92 NSCLC
KM12 colon = test system: KM12 colon
A498 renal = test system: A498 renal
RXF 393 renal = test system: RXF 393 renal
K-562 leukemia = test system: K-562 leukemia

SMILES | TGI (DU-145 prostate) | TGI (NCI-H23 lung) | TGI (OVCAR-8 ovarian) | TGI (MDA-MB-231 breast) | TGI (HS 578T breast) | TGI (SF-539 CNS) | TGI (IGROV1 ovarian) | TGI (TK-10 renal) | TGI (SN12C renal) | TGI (SW-620 colon) | TGI (CCRF-CEM leukemia) | TGI (HOP-92 NSCLC) | TGI (KM12 colon) | TGI (A498 renal) | TGI (RXF 393 renal) | TGI (K-562 leukemia) | GI50 (DU-145 prostate) | GI50 (SF-539 CNS) | GI50 (SN12C renal) | GI50 (CCRF-CEM leukemia)
Cc1[nH]c2ncn3ncnc3c2c1Cc1ccccc1 | > 100 µM | > 100 µM | > 100 µM | > 100 µM | > 100 µM | > 100 µM | > 100 µM | > 100 µM | > 100 µM | > 100 µM | > 100 µM | > 100 µM | > 100 µM | > 100 µM | > 100 µM |  |  |  |  | 
O=c1[nH]c(=O)n(C2CC(O)C(COP(=O)(O)OC3CC(n4cc(F)c(=O)[nH]c4=O)OC3COP(=O)(O)OC3CC(n4cc(F)c(=O)[nH]c4=O)OC3COP(=O)(O)OC3CC(n4cc(F)c(=O)[nH]c4=O)OC3COP(=O)(O)OC3CC(n4cc(F)c(=O)[nH]c4=O)OC3COP(=O)(O)OC3CC(n4cc(F)c(=O)[nH]c4=O)OC3COP(=O)(O)OC3CC(n4cc(F)c(=O)[nH]c4=O)OC3COP(=O)(O)OC3CC(n4cc(F)c(=O)[nH]c4=O)OC3COP(=O)(O)OC3CC(n4cc(F)c(=O)[nH]c4=O)OC3COP(=O)(O)OC3CC(n4cc(F)c(=O)[nH]c4=O)OC3CO)O2)cc1F (stereo not given) | > 50 µM | > 50 µM | > 50 µM | > 50 µM | > 50 µM | < 0.005 µM | > 50 µM | > 50 µM | > 50 µM | > 50 µM |  | > 50 µM | > 50 µM | 1.12 µM | > 50 µM | > 50 µM |  |  |  | 
CN(C)C(=S)N/N=C\C(=N/NC(=S)N(C)C)c1ccccc1 | > 22.7 µM | > 45.4 µM | > 100 µM | > 100 µM | > 29.9 µM | > 100 µM | > 48.2 µM | > 100 µM | > 100 µM | > 100 µM |  | 92.1 µM | > 100 µM | 49.1 µM | > 27.8 µM | > 100 µM |  |  |  | 
COC(=O)C(/C(=N/N)C(=O)Nc1ccc(C)c(C)c1)c1nc2ccc(Cl)cc2[nH]c1=O (stereo not given) |  | > 100 µM | > 100 µM | > 100 µM | > 100 µM | > 100 µM | > 100 µM | > 100 µM | > 100 µM | > 100 µM | > 100 µM | > 100 µM | > 100 µM | > 100 µM | > 100 µM | > 100 µM |  |  |  | 
CC1CC(=O)N2CCCNC2=C1C#N (stereo not given) | > 100 µM | > 100 µM | > 100 µM | > 100 µM | > 100 µM | > 100 µM | > 100 µM | > 100 µM | > 100 µM | > 100 µM | > 100 µM |  | > 100 µM |  | > 100 µM | > 100 µM |  |  |  | 
CC/C(Cl)=N\OC(=O)Nc1ccccc1OC(F)(F)F | 33.9 µM | 45.8 µM | 35.9 µM | 34.2 µM | > 68.2 µM | 31 µM | 30.8 µM | 23.8 µM | 14.2 µM |  | 3.42 µM | 6.15 µM | 41.6 µM | 45.4 µM | 32.6 µM | 4.55 µM |  |  |  | 
Cc1ccc(-c2c(C#N)c(-c3ccc([N+](=O)[O-])cc3)c(C#N)c(=O)n2NS(=O)(=O)c2ccc(C)cc2)cc1 |  |  | > 100 µM | > 100 µM | 95.8 µM | > 100 µM | > 100 µM | > 100 µM | > 100 µM | > 100 µM | 73.2 µM | > 100 µM | > 100 µM | > 100 µM | > 100 µM | > 100 µM |  |  |  | 
CCCCCCNC(=O)c1cc(C#Cc2cc(OC)ccc2OC)ccc1OC | > 100 µM | > 100 µM | > 100 µM | > 100 µM | > 100 µM | > 100 µM | > 100 µM | > 100 µM | > 100 µM | > 100 µM | > 100 µM | > 100 µM | > 100 µM | > 100 µM |  | > 100 µM | > 100 µM | > 100 µM | > 100 µM | 7.9 µM
COCC[N+](CCNC(=O)c1cccc2c(N)c3cccc(C)c3nc12)(CCOC)Cc1ccc([N+](=O)[O-])cc1 | 59.1 µM | > 100 µM | > 100 µM | 58.8 µM | 39.3 µM | 56.7 µM | 33.5 µM | > 100 µM | > 100 µM | > 100 µM | 58.1 µM | 94.6 µM | 30.9 µM |  |  |  |  |  |  | 
Nc1ccn([C@H]2CO[C@@H](CO)O2)c(=O)n1 | > 22.6 µM | > 100 µM | > 100 µM | > 100 µM | > 100 µM | 68.4 µM | > 100 µM | > 100 µM | > 100 µM | > 100 µM | > 92 µM | 43.8 µM | > 100 µM |  | > 83.3 µM | > 100 µM |  |  |  | 
CC1(C)CC(=O)C(CC(C(=O)C(=O)Nc2cc(C(F)(F)F)ccc2Cl)C(=O)c2ccco2)C(=O)C1 (stereo not given) | > 100 µM | > 100 µM | > 100 µM | > 100 µM | > 100 µM | > 100 µM | > 100 µM | > 100 µM | > 100 µM | > 100 µM | > 100 µM | > 100 µM | > 100 µM | > 100 µM |  | > 100 µM |  |  |  | 
Cc1cc(=O)oc2c(CNC(C)C(=O)O)c(O)ccc12 (stereo not given) | > 100 µM | > 100 µM | > 100 µM | > 100 µM | > 100 µM | > 100 µM | > 100 µM | > 100 µM | > 100 µM | > 100 µM | > 100 µM | > 100 µM | > 100 µM |  | > 100 µM | > 100 µM |  |  |  | 
Oc1ccc(-c2c3ccccc3c(-c3ccc(OCCBr)cc3)c3ccccc23)cc1 | > 100 µM | 34.9 µM | 64 µM | 44.6 µM | 82.2 µM | 32.4 µM | 44.2 µM | 99.2 µM | 59.9 µM | > 100 µM | > 100 µM |  | 83.6 µM | 40 µM | 64.3 µM | 97.4 µM |  |  |  | 
CCCCOP(=O)(OCCCC)/C(C#N)=C/c1ccc(C)o1 | > 100 µM | 92.3 µM | > 100 µM | > 100 µM | > 100 µM | > 100 µM | > 100 µM | > 100 µM | > 100 µM | > 100 µM |  | 79.6 µM | > 100 µM | > 100 µM | 86.1 µM | 71.3 µM |  |  |  | 
